According to ChEMBL document CHEMBL2417501, “Synthesis of 4-aminoquinoline-pyrimidine hybrids as potent antimalarials and their mode of action studies” (Eur J Med Chem, 2013):

How the values were obtained:
Plasmodium falciparum [1] = assay: Antimalarial activity against chloroquine-resistant Plasmodium falciparum Dd2; format: functional, organism-based
[2] = Cytotoxicity against african green monkey Vero cells; format: cell-based; conditions: chlorocebus sabaeus
Punta Toro virus = assay: Antiviral activity against […] infected in african green monkey Vero cells assessed as reduction of virus-induced cytopathogenicity; format: functional, organism-based
Sindbis virus = assay: Antiviral activity against Sindbis virus infected in african green monkey Vero cells assessed as reduction of virus-induced cytopathogenicity; format: functional, organism-based
Coxsackievirus [3] = assay: Antiviral activity against Coxsackievirus B4 infected in african green monkey Vero cells assessed as reduction of virus-induced cytopathogenicity; format: functional, organism-based
[4] = tested on: Mammalian orthoreovirus 1; assay: Antiviral activity against Reovirus-1 infected in african green monkey Vero cells assessed as reduction of virus-induced cytopathogenicity; format: functional, organism-based; conditions: Mammalian orthoreovirus 1, Vero
[5] = Cytotoxicity against human HeLa cells; format: cell-based
Human respirovirus 3 = assay: Antiviral activity against Parainfluenza-3 virus infected in african green monkey Vero cells assessed as reduction of virus-induced cytopathogenicity; format: functional, organism-based; conditions: Human respirovirus 3, Vero
[6] = tested on: Respiratory syncytial virus; assay: Antiviral activity against Respiratory syncytial virus infected in human HeLa cells assessed as reduction of virus-induced cytopathogenicity; format: functional, organism-based
Coxsackievirus [7] = assay: Antiviral activity against Coxsackievirus B4 infected in human HeLa cells assessed as reduction of virus-induced cytopathogenicity; format: functional, organism-based
[8] = tested on: Vesicular stomatitis virus; assay: Antiviral activity against Vesicular stomatitis virus infected in human HeLa cells assessed as reduction of virus-induced cytopathogenicity; format: functional, organism-based
[9] = Inhibition of beta-hematin formation at 1 mg/ml; format: functional
Felid alphaherpesvirus 1 = assay: Antiviral activity against feline herpesvirus infected in cat CRFK cells assessed as reduction of virus-induced cytopathogenicity by MTS assay; format: functional, organism-based; conditions: Felid alphaherpesvirus 1, CRFK
Feline coronavirus = assay: Antiviral activity against Feline coronavirus infected in cat CRFK cells assessed as reduction of virus-induced cytopathogenicity by MTS assay; format: functional, organism-based; conditions: Alphacoronavirus 1, CRFK
Influenza B virus = assay: Antiviral activity against influenza B virus infected in dog MDCK cells assessed as reduction of virus-induced cytopathogenicity by MTS assay; format: functional, organism-based
Influenza A virus [10] = assay: Antiviral activity against influenza A virus […] subtype infected in dog MDCK cells assessed as reduction of virus-induced cytopathogenicity by MTS assay; format: functional, organism-based
Influenza A virus [11] = assay: Antiviral activity against influenza A virus H1N1 subtype infected in dog MDCK cells assessed as reduction of virus-induced cytopathogenicity by MTS assay; format: functional, organism-based
Human alphaherpesvirus 1 [12] = assay: Antiviral activity against TK-negative Herpes simplex virus 1 KOS infected in human HEL cells assessed as reduction of virus-induced cytopathogenicity; format: functional, organism-based; conditions: Human alphaherpesvirus 1, KOS
[13] = tested on: Vesicular stomatitis virus; assay: Antiviral activity against Vesicular stomatitis virus infected in human HEL cells assessed as reduction of virus-induced cytopathogenicity; format: functional, organism-based
Human alphaherpesvirus 2 = assay: Antiviral activity against Herpes simplex virus-2 G infected in human HEL cells assessed as reduction of virus-induced cytopathogenicity; format: functional, organism-based; conditions: Human alphaherpesvirus 2, strain G
Human alphaherpesvirus 1 [14] = assay: Antiviral activity against Herpes simplex virus-1 KOS infected in human HEL cells assessed as reduction of virus-induced cytopathogenicity; format: functional, organism-based; conditions: Human alphaherpesvirus 1, KOS
Human alphaherpesvirus 3 [15] = assay: Antiviral activity against […] Varicella-zoster virus 07-1 infected in human HEL cells assessed as reduction of plaque formation; format: functional, organism-based; conditions: Human alphaherpesvirus 3, 07-1, HEL
Human alphaherpesvirus 3 [16] = assay: Antiviral activity against TK-positive Varicella-zoster virus OKA infected in human HEL cells assessed as reduction of plaque formation; format: functional, cell-based; conditions: Human alphaherpesvirus 3, strain Oka vaccine
[17] = Cytotoxicity against human HEL cells; format: cell-based
Cytomegalovirus [18] = assay: Antiviral activity against Cytomegalovirus Davis infected in human HEL cells assessed as reduction of plaque formation; format: functional, organism-based; conditions: Human betaherpesvirus 5, Davis
Cytomegalovirus [19] = assay: Antiviral activity against Cytomegalovirus AD-169 infected in human HEL cells assessed as reduction of plaque formation; format: functional, organism-based; conditions: Human betaherpesvirus 5, AD-169, HEL
[20] = Cytotoxicity against cat CRFK cells; format: cell-based, Felis catus
[21] = (§1) Cytotoxicity against MDCK cells assessed as cell viability after 4 days by MTS assay; format: cell-based, Canis lupus familiaris; conditions: dog, MDCK cells
MDCK = assay: as §1; format: cell-based, Canis lupus familiaris; conditions: dog, mdck, 96 h
Plasmodium falciparum [22] = assay: Antimalarial activity against chloroquine-sensitive Plasmodium falciparum D10 by two-fold dilution technique; format: functional, organism-based

With `C[C@H]1[C@H](OC(=O)CCC(=O)O)O[C@@H]2O[C@@]3(C)CC[C@H]4[C@H](C)CC[C@@H]1[C@@]24OO3` [ARTESUNATE] as the molecule, how does the IC50 (Plasmodium falciparum [1]) read?
The IC50 was 0.0312 µM.

Which MCC [2] does the source give for `Nc1ncnc2c1ncn2C[C@H](O)CO` [(S)-DHPA] here?
Its MCC is greater than 250 µM.

And the EC50 (Punta Toro virus)?
Its EC50 is greater than 250 µM.

And the EC50 (Sindbis virus)?
Its EC50 is greater than 250 µM.

What about the EC50 (Coxsackievirus [3]) of the same molecule?
The EC50 was greater than 250 µM.

And the EC50 [4]?
Its EC50 is greater than 250 µM.

And the MCC [5]?
Its MCC is greater than 250 µM.

What about the EC50 (Human respirovirus 3) of the same molecule?
The EC50 was 146 µM.

What about the EC50 [6] of the same molecule?
The EC50 was greater than 250 µM.

And the EC50 (Coxsackievirus [7])?
Its EC50 is greater than 250 µM.

What about the EC50 [8] of the same molecule?
The EC50 was greater than 250 µM.

Which results are given for `CCOC(=O)c1c(C)nc(NCCCCNc2ccnc3cc(Cl)ccc23)nc1-c1ccccc1[N+](=O)[O-]`?
inhibition [9]: 49%; EC50 (Felid alphaherpesvirus 1): > 100 µM; EC50 (Feline coronavirus): 9 µM; EC50 (Influenza B virus): > 0.16 µM; EC50 (Influenza A virus [10]; read-out: EC50): > 0.16 µM; EC50 (Influenza A virus [11]): > 0.16 µM; MCC [2]: 4 µM; EC50 (Punta Toro virus): > 0.8 µM; EC50 (Sindbis virus): > 0.8 µM; EC50 (Coxsackievirus [3]): > 0.8 µM; EC50 [4]: > 0.8 µM; MCC [5]: 100 µM; EC50 (Human respirovirus 3): > 0.8 µM; EC50 [6]: > 20 µM; EC50 (Coxsackievirus [7]): > 20 µM; EC50 [8]: > 20 µM; EC50 (Human alphaherpesvirus 1 [12]): > 4 µM; EC50 [13]: > 4 µM; EC50 (Human alphaherpesvirus 2): > 4 µM; EC50 (Human alphaherpesvirus 1 [14]): > 4 µM; EC50 (Human alphaherpesvirus 3 [15]): > 4 µM; EC50 (Human alphaherpesvirus 3 [16]): > 4 µM; MCC [17]: 20 µM; EC50 (Cytomegalovirus [18]): > 4 µM; EC50 (Cytomegalovirus [19]): > 4 µM; CC50 ([20]; crfk): > 100 µM; MCC at 96 h [21]: 0.8 µM; CC50 (MDCK): 0.8 µM; IC50 (Plasmodium falciparum [22]): 1.46 µM

Which EC50 (Influenza B virus) does the source give for `CC(N)C12CC3CC(CC(C3)C1)C2` (stereo not drawn) [RIMANTADINE] here?
Its EC50 is greater than 200 µM.

What about the EC50 (Influenza A virus [10]; read-out: EC50) of the same molecule?
The EC50 was 0.01 µM.

What about the EC50 (Influenza A virus [11]) of the same molecule?
Its EC50 is 6.4 µM.

What about the MCC at 96 h [21] of the same molecule?
The MCC at 96 h was greater than 200 µM.

With `CCOC(=O)c1c(C)nc(NCCCCNc2ccnc3cc(Cl)ccc23)nc1-c1ccc(Cl)cc1` as the molecule, how does the inhibition [9] read?
Its inhibition is 56%.

And the EC50 (Felid alphaherpesvirus 1)?
Its EC50 is greater than 100 µM.

And the EC50 (Feline coronavirus)?
Its EC50 is greater than 100 µM.

And the EC50 (Influenza B virus)?
Its EC50 is greater than 0.8 µM.

And the EC50 (Influenza A virus [10]; read-out: EC50)?
Its EC50 is greater than 0.8 µM.

What about the EC50 (Influenza A virus [11]) of the same molecule?
The EC50 was greater than 0.8 µM.

And the MCC [2]?
Its MCC is 4 µM.

And the EC50 (Punta Toro virus)?
The EC50 was greater than 0.8 µM.

And the EC50 (Sindbis virus)?
Its EC50 is greater than 0.8 µM.

What about the EC50 (Coxsackievirus [3]) of the same molecule?
Its EC50 is greater than 0.8 µM.

What about the EC50 [4] of the same molecule?
Its EC50 is greater than 0.8 µM.

What about the MCC [5] of the same molecule?
The MCC was greater than 100 µM.

And the EC50 (Human respirovirus 3)?
The EC50 was greater than 0.8 µM.

What about the EC50 [6] of the same molecule?
The EC50 was greater than 100 µM.

What about the EC50 (Coxsackievirus [7]) of the same molecule?
The EC50 was greater than 100 µM.

And the EC50 [8]?
Its EC50 is greater than 100 µM.

What about the EC50 (Human alphaherpesvirus 1 [12]) of the same molecule?
The EC50 was greater than 20 µM.

What about the EC50 [13] of the same molecule?
The EC50 was greater than 20 µM.

And the EC50 (Human alphaherpesvirus 2)?
Its EC50 is greater than 20 µM.

And the EC50 (Human alphaherpesvirus 1 [14])?
The EC50 was greater than 20 µM.

What about the EC50 (Human alphaherpesvirus 3 [15]) of the same molecule?
Its EC50 is greater than 4 µM.

And the EC50 (Human alphaherpesvirus 3 [16])?
The EC50 was greater than 4 µM.

What about the MCC [17] of the same molecule?
Its MCC is 20 µM.

And the EC50 (Cytomegalovirus [18])?
The EC50 was greater than 4 µM.

And the EC50 (Cytomegalovirus [19])?
Its EC50 is greater than 4 µM.

And the CC50 ([20]; crfk)?
The CC50 was greater than 100 µM.

And the MCC at 96 h [21]?
The MCC at 96 h was no less than 0.8 µM.

And the CC50 (MDCK)?
Its CC50 is 2.2 µM.

And the IC50 (Plasmodium falciparum [22])?
Its IC50 is 1.93 µM.

For `CS(=O)(=O)c1ccc(-c2cnc(N)c(-c3ccc(C(F)(F)F)nc3)c2)cc1` [MMV-048], which IC50 (Plasmodium falciparum [1]) is on record?
Its IC50 is 0.0178 µM.

What does the source list for `O=c1[nH]c(=O)n([C@H]2C[C@H](O)[C@@H](CO)O2)cc1/C=C/Br` [BRIVUDINE]?
EC50 [13]: > 250 µM; EC50 (Human alphaherpesvirus 2): 146 µM; EC50 (Human alphaherpesvirus 3 [15]): 145 µM; EC50 (Human alphaherpesvirus 3 [16]): 3.82 µM; MCC [17]: > 250 µM

Which EC50 [13] does the source give for `Nc1ccn(C[C@@H](CO)OCP(=O)(O)O)c(=O)n1` [CIDOFOVIR] here?
The EC50 was greater than 250 µM.

What about the MCC [17] of the same molecule?
Its MCC is greater than 250 µM.

What about the EC50 (Cytomegalovirus [18]) of the same molecule?
Its EC50 is 1.84 µM.

And the EC50 (Cytomegalovirus [19])?
The EC50 was 0.86 µM.

Which results are given for `Nc1nc2c(ncn2COC(CO)CO)c(=O)[nH]1` [GANCICLOVIR]?
EC50 (Feline coronavirus): > 100 µM; EC50 (Human alphaherpesvirus 1 [12]): 4 µM; EC50 [13]: > 100 µM; MCC [17]: > 100 µM; EC50 (Cytomegalovirus [18]): 5.98 µM; EC50 (Cytomegalovirus [19]): 7.87 µM; CC50 ([20]; CRFK cells): > 100 µM

With `NC12CC3CC(CC(C3)C1)C2` [AMANTADINE] as the molecule, how does the EC50 (Influenza B virus) read?
The EC50 was greater than 200 µM.

What about the EC50 (Influenza A virus [10]) of the same molecule?
Its EC50 is 0.3 µM.

And the EC50 (Influenza A virus [11])?
Its EC50 is 17 µM.

And the MCC at 96 h [21]?
The MCC at 96 h was greater than 200 µM.

For `Nc1nc2c(ncn2COCCO)c(=O)[nH]1` [ACYCLOVIR], which EC50 [13] is on record?
The EC50 was greater than 250 µM.

What about the EC50 (Human alphaherpesvirus 3 [15]) of the same molecule?
Its EC50 is 144 µM.

And the MCC [17]?
The MCC was greater than 250 µM.

For `NC(=O)c1ncn([C@@H]2O[C@H](CO)[C@@H](O)[C@H]2O)n1` [RIBAVIRIN], which EC50 (Influenza B virus) is on record?
Its EC50 is 2.8 µM.

And the EC50 (Influenza A virus [10]; read-out: EC50)?
Its EC50 is 1.1 µM.

What about the EC50 (Influenza A virus [11]) of the same molecule?
Its EC50 is 2.5 µM.

And the MCC [2]?
The MCC was greater than 250 µM.

And the EC50 (Sindbis virus)?
The EC50 was greater than 250 µM.

And the EC50 (Coxsackievirus [3])?
Its EC50 is greater than 250 µM.

And the EC50 [4]?
Its EC50 is greater than 250 µM.

What about the MCC [5] of the same molecule?
Its MCC is greater than 250 µM.

And the EC50 (Human respirovirus 3)?
Its EC50 is 146 µM.

What about the EC50 (Coxsackievirus [7]) of the same molecule?
Its EC50 is 112 µM.

What about the MCC at 96 h [21] of the same molecule?
The MCC at 96 h was greater than 100 µM.
